Legend:
OVCAR5-cisR cells [1] = experiment: Isotope labeling and SRS imaging; assay type: cell-based, human; conditions: BMS 10 μM for 24 hours, 100 μM PA-d31 for 6 hours
Procedure: (§1) For labeling with glucose-d7, media was replaced with glucose-free DMEM medium (Thermo Fisher Scientific, #11966025)+10% FBS+P/S supplemented with 25 mM glucose-d7 after seeding the cells in 35 mm glass-bottom dishes overnight. For labeling with FA or analogs, including PA-d31, OA-d34, and ODYA, FA or analogs were added to the culture media at final concentration of 100 μM and cells were treated for 6 h. For quantitative SRS imaging, cells on glass-bottom dishes were fixed with 10% neutral buffered formalin for 30 min and washed with PBS for 3 times. Hyperspectral SRS imaging was performed to the cells at Raman spectral region from 2100 to 2300 cm^−1.
(§2) To identify the source of increased lipid content in cisplatin-resistant ovarian cancer cells, the contribution of de novo lipogenesis and of fatty acid uptake were examined, respectively. Using a stable isotope probing method, the level of lipogenesis was examined by feeding the cells with deuterium labeled glucose-d7. […] Quantitative analysis confirmed significant reduction of both signal intensity and relative area fraction in PEO4 cells when compared to PEO1 cells (FIG. 2B), indicating a decrease in glucose derived anabolism and de novo lipogenesis in cisplatin-resistant cells. […]

SKOV3-cisR cells [2] = experiment: Isotope labeling and SRS imaging; assay type: cell-based, human; conditions: BMS 5 μM, 10 μM or 20 μM for 24 hours, 100 μM PA-d31 for 6 hours
Procedure: as §1, §2

PEO4 cells = experiment: Cell viability assay (dose-response); assay type: cell-based, human
Procedure: (§3) Cell viability was measured by MTS assay (Abcam, #ab197010) or by CellTiter-Glo™ assay (Promega, #G7570). Cells were seeded at 96-well plates at densities of 2000˜5000 cells per well overnight. Treatment was added to the cells at indicated concentrations for 72 h. Cell viability was measured by incubating with MTS reagent for 4 h and reading absorbance at 490 nm or incubating with CellTier-Glo™ reagent for 10 min and reading luminescence by a plate reader. Six replicates were used for each group.
(§4) In addition, isogenic PEO1/PEO4 cell lines derived from the same patient were studied, at the time of a platinum sensitive (PEO1) and platinum resistant-recurrence (PEO4).
(§5) Having shown decreased glucose-derived anabolism and increased fatty acid uptake in cisplatin-resistant ovarian cancer cells, whether this metabolic feature can be used for differentiation of cisplatin-resistant from cisplatin-sensitive cancer cells was explored. […] In Table 2 below, quantitation of glucose-d7 (G-d7), PA-d31, and OA-d34 are shown as area fraction of C-D signal out of total cellular area, in mean values.

OVCAR5 cells [3] = experiment: Cell viability assay (dose-response); assay type: cell-based, human; conditions: OVCAR5 cells (sensitive)
Procedure: as §3, §4, §5

SKOV3 cells = experiment: Cell viability assay (dose-response); assay type: cell-based, human; conditions: SKOV3 cells (sensitive)
Procedure: as §3, §4, §5

PEO1 cells = experiment: Cell viability assay (dose-response); assay type: cell-based, human; conditions: PEO1 cells (sensitive)
Procedure: as §3, §4, §5

OVCAR5-cisR cells [4] = experiment: Cell viability assay (dose-response); assay type: cell-based, human
Procedure: as §3, §4, §5

SKOV3-cisR cells [5] = experiment: Cell viability assay (dose-response); assay type: cell-based, human; conditions: SKOV3-cisR cells
Procedure: as §3, §4, §5

SKOV3-cisR cells [6] = experiment: Large-area hyperspectral SRS imaging of lipids, single cell analysis; assay type: cell-based, human; conditions: 10 μM C-75
Procedure: Hyperspectral SRS imaging was performed on a lab-built system following previously published method [8]. The laser source was a femtosecond laser (InSight™ DeepSee™, Spectra-Physics™, Santa Clara, CA, USA) operating at 80 MHz with two synchronized output beams, a tunable pump beam ranging from 680 nm to 1300 nm, and a Stokes beam fixed at 1040 nm. For imaging at the C-H vibration region (2800˜3050 cm^−1), pump beam was tuned to 798 nm. The Stokes beam was modulated at 2.3 MHz by an acousto-optic modulator (1205-C, Isomet®). After combination, both beams were chirped by two 12.7 cm long SF57 glass rods and then sent to a laser-scanning microscope. The power of pump and Stokes beam before microscope was controlled to be 20 mW and 200 mW, respectively. […]
Lipid analysis in single cells were performed through the software CellProfiler™ [68]. […] Morphological information of each cell and lipid analysis, including LD number and intensity in single cells were measured and reported in the output results. […] For each sample, a few hundreds to a thousand of cells were analyzed.
An SRS spectrum was extracted at each pixel from the image stack. […] Finally, quantitative characterization of lipids in terms of integrated intensity, mean intensity, area, and lipid droplet size in each individual cell was performed.

OVCAR5 xenografts = OVCAR5 xenografts in mice treated with carboplatin; assay type: in vivo; conditions: 25 mg/kg carboplatin weekly i.p. for three cycles versus saline
Procedure: Xenografts were obtained through intraperitoneally implantation of 2 million OVCAR5 cells in female (6-8 weeks old) athymic nude mice (Foxn1^nu, Envigo). Two weeks after inoculation, tumor harboring mice were treated with PBS (sensitive group, n=3) or 25 mg/kg carboplatin (resistant group, n=3) via weekly i.p. injection for three cycles. Tumors were collected and weighted one week after the last cycle and frozen. For SRS imaging, tumors were sectioned at […] thickness slices by cryostat. To isolate tumor cells from tissue, PBS and carboplatin treated xenografts were mechanically and enzymatically dissociated in Dulbecco's modified Eagle's medium/F12 (Thermo Fisher Scientific) containing collagenase (300 IU/ml, Sigma-Aldrich) and hyaluronidase (300 IU/ml, Sigma-Aldrich) for 2-4 hours at 37° C. […] To determine whether lipid accumulation also occurs in vivo in platinum-treated tumors, SRS imaging of lipids was performed in OVCAR5 xenografts collected from mice treated weekly with saline or carboplatin for three weeks. Tumor growth was suppressed by carboplatin treatment (FIG. 1N). […] (FIG. 1O). The results shown in FIGS. 1P-1Q indicate heterogenous lipid accumulation and higher lipid amount in the carboplatin-treated tumors compared with the platinum-sensitive tumors. Collectively, higher level of lipid content was a metabolic feature of cisplatin-resistant ovarian cancer cells.

[7] = system: platinum resistant PDX model; experiment: Platinum resistant patient-derived xenograft (PDX) model; assay type: in vivo; conditions: day 14 to 37
Procedure: The platinum resistant PDX model was developed as previously described. After passage through a donor animal, fresh tumor (equal size) was implanted subcutaneously (SC) in 20 female 7-8-week-old NSG mice (Jackson Labs, Cat #: JAX:00555). Tumor sizes were measured using calipers twice per week and tumor volumes were calculated according to the formula length×width^2/2. When the tumor volume reached 100 mm^3, the animals were randomized into four groups: vehicle, carboplatin alone (10 mg/kg weekly intraperitoneal (i.p.) injection), etomoxir alone (40 mg/kg daily i.p. injection), and combination of carboplatin (10 mg/kg weekly i.p. injection) and etomoxir (40 mg/kg daily i.p. injection). Body weights and habitus were monitored twice per week and mice were sacrificed when the largest tumor exceeded 1500 mm^3 or if human endpoints were reached earlier.
A patient-derived xenograft (PDX) model rendered platinum resistant through repeated exposure to carboplatin in vivo as described previously was used to test whether interruption of fatty acid oxidation could sensitize ovarian tumors to platinum in vivo.

OVCAR5 cells [8] = experiment: OCR and ECAR by Seahorse analysis; assay type: cell-based, human; conditions: etomoxir treatment
Procedure: (§6) Cell lines were seeded in a Seahorse® XF96 Cell Culture Microplate (Agilent) at density of 6×10^4 (OVCAR5 pair) or 4×10^4 (PEO pair) per well. After incubation at 37° C. overnight for cell attachment, OCR, and extracellular acidification rate (ECAR) were measured through Seahorse® XFe96 Analyzer (Agilent). Measurement time was 30 seconds following 3 minutes mixture and 30 seconds waiting time. First three cycles were used for basal respiration measurement. […] Basal respiration, ATP production and maximal respiration reduction were calculated following the manufacturer's instructions.

OVCAR5-cisR cells [9] = experiment: OCR and ECAR by Seahorse analysis; assay type: cell-based, human; conditions: etomoxir treatment
Procedure: as §6

OVCAR5 cells [10] = experiment: Fatty acid oxidation assay (extracellular oxygen consumption kit); assay type: cell-based, human; conditions: 40 μM etomoxir over 3 hours
Procedure: (§7) Fatty acid oxidation (FAO) was measured using a commercial kit (Abcam, #ab217602) following the provided protocol. Briefly, cells were seeded in 96-well plate with 150 k cells/well. After incubation overnight, medium was replaced. 10 μL of Extracellular O2 consumption reagent, and 2 drops of high-sensitivity mineral oil (pre-heated at 37° C.) were added to each well. Fluorescence was measured in plate reader at 2 min intervals for 180 min at excitation/emission=380/650 nm. Etomoxir was added at final concentration of 40 μM to block FAO. Oxygen consumption rate (OCR) is presented as AFluorescence intensity/Min/cell and FAO rate is calculated as OCRFAO=OCRtotal−OCREtomoxir. At least three replicates were included for each measurement.

OVCAR5-cisR cells [11] = experiment: as above; assay type: cell-based, human; conditions: 40 μM etomoxir over 3 hours
Procedure: as §7

COV362-cisR cells = experiment: Cell viability assay (dose-response); assay type: cell-based, human
Procedure: as §3, §4, §5

OVCAR5-cisR cells [12] = experiment: ATP/ADP assay; assay type: cell-based, human; conditions: 3.3 μM cisplatin with 100 μM palmitic acid for 6 hours
Procedure: NADP/NADPH and ADP/ATP were measured by using commercial kits (Abcam, #ab65349 and #ab65313). For NADPH measurement, cells (˜1×10^6 cells) were pelleted and extracted using NADPH/NADP extraction buffer. Total NADP/NADPH was directly measured using the assay kit and NADPH alone was measured after decomposing NADP by heating at 60° C. for 30 min. Absorption at 450 nm was measured by plate reader (Molecular Devices, SpectraMax i3x). For ATP measurement, cells were seeded in 96-well plates. ATP was measured directly and total ATP+ADP was measured by converting ADP to ATP. The luminescent signal was measured by plate reader. At least three replicates were included for each measurement.

CCc1c(-c2ccccc2)c(-c2ccccc2)nn1-c1ccccc1-c1cccc(OCC(=O)O)c1 [BMS309403]
PA-d31 uptake (C-D SRS signal intensity) (OVCAR5-cisR cells [1]): significantly reduced
fatty acid uptake (C-D SRS signal intensity) (SKOV3-cisR cells [2]): Suppression of fatty acid uptake
dose-response to cisplatin with supplemental BMS treatment (PEO4 cells; PEO4 cells): reduced resistance to cisplatin
dose-response to cisplatin with supplemental BMS treatment (OVCAR5 cells [3]): less obvious
dose-response to cisplatin with supplemental BMS treatment (SKOV3 cells): less obvious
dose-response to cisplatin with supplemental BMS treatment (PEO1 cells): less obvious
dose-response to cisplatin with supplemental BMS treatment (OVCAR5-cisR cells [4]; OVCAR5-cisR cells): reduced resistance to cisplatin
dose-response to cisplatin with supplemental BMS treatment (SKOV3-cisR cells [5]): reduced resistance to cisplatin

C=C1C(=O)OC(CCCCCCCC)C1C(=O)O (centres unmarked) [C-75]
increased lipid content in SKOV3-cisR compared with SKOV3 (SKOV3-cisR cells [6]): did not affect the increased lipid content

N.N.O=C([O-])C1(C(=O)[O-])CCC1.[Pt+2] [carboplatin]
Tumor growth (weights of xenografts) (OVCAR5 xenografts): suppressed
tumor growth (total tumor volume) ([7]; carboplatin alone, 10 mg/kg weekly i.p.): slight reduction of tumor growth

CCOC(=O)[C@@]1(CCCCCCOc2ccc(Cl)cc2)CO1 [etomoxir]
OCR (Seahorse FAO assay) (OVCAR5 cells [8]): less sensitive
OCR (Seahorse FAO assay) (OVCAR5-cisR cells [9]): obvious reduction of OCR
tumor growth (total tumor volume) ([7]; etomoxir alone, 40 mg/kg daily i.p.): slight reduction of tumor growth
oxygen consumption (OVCAR5 cells [10]): did not induce an obvious change
oxygen consumption (OVCAR5-cisR cells [11]): significantly reduced
dose-response to cisplatin curves with etomoxir treatment (PEO4 cells; PEO4 cells, etomoxir 40 μM): significantly left shifted
dose-response to etomoxir, compared to parental cell line (PEO4 cells; PEO4 versus PEO1): Higher sensitivity
dose-response to cisplatin curves with etomoxir treatment (COV362-cisR cells; COV362-cisR cells, etomoxir 40 μM): significantly left shifted
dose-response to etomoxir, compared to parental cell line (COV362-cisR cells; COV362-cisR versus COV362): Higher sensitivity
dose-response to cisplatin curves with etomoxir treatment (OVCAR5-cisR cells [4]; OVCAR5-cisR cells, etomoxir 40 μM): significantly left shifted
dose-response to etomoxir, compared to parental cell line (OVCAR5-cisR cells [4]; OVCAR5-cisR versus OVCAR5): Higher sensitivity

CCCCCCCCCCCCCCCC(=O)O [palmitic acid]
ATP level (ATP/ADP ratio) on supplementation (OVCAR5-cisR cells [12]): significantly increased

Reference: US12055536B2, “Device for detection of cellular stress” (Trustees of Boston University, priority 2021, dated 2024)
